Assay [1] concerns the target Carbonic anhydrase 12 (Homo sapiens, UniProt O43570).
Description: Inhibition of human carbonic anhydrase 12 by stopped-flow CO2 hydrase assay
Assay [2] has as its target Carbonic anhydrase 9 (Homo sapiens, UniProt Q16790).
Description: Inhibition of human carbonic anhydrase 9 by stopped-flow CO2 hydrase assay
Assay [3] has as its target Carbonic anhydrase 1 (Homo sapiens, UniProt P00915). Kind of assay: Inhibition of human carbonic anhydrase 1 by stopped-flow CO2 hydrase assay.
The target of assay [4] is Carbonic anhydrase 2 (Homo sapiens, UniProt P00918). The assay is described as follows: Inhibition of human carbonic anhydrase 2 by stopped-flow CO2 hydrase assay.

In general, Ki refers to a measure of affinity in units of concentration, obtained from inhibition or displacement.

A value given as a limit tells only on which side of the number the result lay.

Carbonic anhydrase 12, sequence (O43570 whole entry): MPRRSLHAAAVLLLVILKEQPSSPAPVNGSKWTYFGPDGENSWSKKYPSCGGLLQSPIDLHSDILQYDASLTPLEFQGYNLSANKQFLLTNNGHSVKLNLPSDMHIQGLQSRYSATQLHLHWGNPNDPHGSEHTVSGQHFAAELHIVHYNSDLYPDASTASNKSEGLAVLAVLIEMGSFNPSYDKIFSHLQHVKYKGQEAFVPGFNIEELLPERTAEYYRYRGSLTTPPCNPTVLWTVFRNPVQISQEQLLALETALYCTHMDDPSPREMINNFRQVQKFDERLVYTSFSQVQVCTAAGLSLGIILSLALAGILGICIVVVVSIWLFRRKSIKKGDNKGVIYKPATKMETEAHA
Carbonic anhydrase 1, sequence (P00915 whole entry): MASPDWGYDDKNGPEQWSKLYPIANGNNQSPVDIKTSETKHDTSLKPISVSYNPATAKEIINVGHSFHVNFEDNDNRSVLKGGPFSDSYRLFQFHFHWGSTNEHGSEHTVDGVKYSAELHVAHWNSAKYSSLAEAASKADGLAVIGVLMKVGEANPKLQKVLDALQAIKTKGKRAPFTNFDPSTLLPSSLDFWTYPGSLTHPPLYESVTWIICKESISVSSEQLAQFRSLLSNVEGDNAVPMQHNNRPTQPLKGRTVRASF

As for `N#CCCCN1C(=O)c2ccccc2S1(=O)=O`, the Ki in assay [1] was more than 50000 nM; in assay [2] it was 290 nM; in assay [3], more than 50000 nM.

On to `CNC(=O)CN1C(=O)c2ccccc2S1(=O)=O`, for which the Ki in assay [1] is 28.4 nM; in assay [2], 200 nM; in assay [3] it was more than 50000 nM; in assay [4], 38.1 nM.

As for `C/C=C/CN1C(=O)c2ccccc2S1(=O)=O`, the Ki in assay [1] was 210 nM; in assay [2], 97 nM; in assay [3], more than 50000 nM.

Consider `CCOC(=O)CN1C(=O)c2ccccc2S1(=O)=O`, for which the Ki in assay [1] is 76.5 nM; in assay [2], 330 nM; in assay [3], more than 50000 nM.

In the case of `N#Cc1ccc(CN2C(=O)c3ccccc3S2(=O)=O)cc1`, the Ki in assay [1] was 150 nM; in assay [2] it was 240 nM; in assay [3] it was more than 50000 nM.

As to `O=C(CN1C(=O)c2ccccc2S1(=O)=O)c1cccc([N+](=O)[O-])c1`, the Ki in assay [1] is 2010 nM; in assay [2], more than 50000 nM; in assay [3], more than 50000 nM; in assay [4], more than 50000 nM.

Consider `O=C1c2ccccc2S(=O)(=O)N1Cc1c(F)cccc1F`, for which the Ki is 1310 nM in assay [1], more than 50000 nM in assay [2] and more than 50000 nM in assay [3].

Turning to `O=C1c2ccccc2S(=O)(=O)N1Cc1cccc(Br)c1`, the Ki was 21.1 nM in assay [1], 360 nM in assay [2] and more than 50000 nM in assay [3].

With `O=C1c2ccccc2C(=O)N1CN1C(=O)c2ccccc2S1(=O)=O`, the Ki in assay [1] is 13400 nM; in assay [2] it was more than 50000 nM; in assay [3], more than 50000 nM; in assay [4], more than 50000 nM.

On to `CC(=O)CN1C(=O)c2ccccc2S1(=O)=O`, for which the Ki in assay [1] is 440 nM; in assay [2], 150 nM; in assay [3] it was more than 50000 nM.

In the case of `O=[N+]([O-])c1ccccc1CNS(=O)(=O)c1ccccc1CO`, the Ki in assay [1] is 250 nM; in assay [2], more than 50000 nM; in assay [3], more than 50000 nM; in assay [4] it was more than 50000 nM.

As to `O=C1c2ccccc2S(=O)(=O)N1CC(O)COc1ccc(Cl)cc1` (stereo unspecified), the Ki in assay [1] was 2910 nM; in assay [2] it was 230 nM; in assay [3], more than 50000 nM; in assay [4], 1800 nM.

Turning to `O=C1c2ccccc2S(=O)(=O)N1Cc1ccc(Cl)c(Cl)c1`, the Ki was 2760 nM in assay [1], 390 nM in assay [2], more than 50000 nM in assay [3] and more than 50000 nM in assay [4].

Turning to `O=C(CN1C(=O)c2ccccc2S1(=O)=O)c1ccccc1`, the Ki in assay [1] was 1780 nM; in assay [2] it was more than 50000 nM; in assay [3], more than 50000 nM; in assay [4], more than 50000 nM.

Take `O=C1c2ccccc2S(=O)(=O)N1Cc1cc(-c2ccc([N+](=O)[O-])cc2)no1`: the values for the Ki in assay [2], in assay [3] and in assay [4] were 310 nM, more than 50000 nM and more than 50000 nM, respectively.

For `O=C1c2ccccc2S(=O)(=O)N1Cc1cccc([N+](=O)[O-])c1`, the Ki in assay [1] was 24.6 nM; in assay [3], more than 50000 nM.

With `O=C1c2ccccc2S(=O)(=O)N1Cc1ccccc1F`, the Ki is 2520 nM in assay [1], more than 50000 nM in assay [2], more than 50000 nM in assay [3] and more than 50000 nM in assay [4].

As for `N#CCN1C(=O)c2ccccc2S1(=O)=O`, the Ki in assay [1] was 710 nM; in assay [2] it was 290 nM; in assay [3], more than 50000 nM; in assay [4], more than 50000 nM.

With `O=C1c2ccccc2S(=O)(=O)N1Cc1cccc2ccccc12`, the Ki in assay [1] is 2540 nM; in assay [2], more than 50000 nM; in assay [3], more than 50000 nM; in assay [4] it was more than 50000 nM.

On to `O=C1c2ccccc2S(=O)(=O)N1Cc1ccccc1[N+](=O)[O-]`, for which the figures for the Ki in assay [1], in assay [2] and in assay [3] were 28.1 nM, 91 nM and more than 50000 nM, respectively.

`O=C(CN1C(=O)c2ccccc2S1(=O)=O)c1ccccc1[N+](=O)[O-]`: the Ki in assay [1] is 970 nM; in assay [2] it was more than 50000 nM; in assay [3], more than 50000 nM; in assay [4] it was more than 50000 nM.

Take `O=C1c2ccccc2S(=O)(=O)N1Cc1ccccc1Br`: the Ki is 25.1 nM in assay [1], more than 50000 nM in assay [2] and more than 50000 nM in assay [3].

With `C/C(CN1C(=O)c2ccccc2S1(=O)=O)=N\O` (mixture of isomers), the Ki is 240 nM in assay [1], 270 nM in assay [2] and more than 50000 nM in assay [3].

For the compound `C#CCN1C(=O)c2ccccc2S1(=O)=O`, the Ki was 570 nM in assay [1], 210 nM in assay [2] and more than 50000 nM in assay [3].

As to `O=C(O)CN1C(=O)c2ccccc2S1(=O)=O`, the Ki in assay [1] was 41.9 nM; in assay [2], 310 nM; in assay [3], more than 50000 nM; in assay [4], more than 50000 nM.

Turning to `O=C1c2ccccc2S(=O)(=O)N1Cc1cccc(F)c1`, the Ki was 2690 nM in assay [1], 380 nM in assay [2] and more than 50000 nM in assay [3].

As for `C=CCN1C(=O)c2ccccc2S1(=O)=O`, the Ki in assay [1] was 94 nM; in assay [2] it was 140 nM; in assay [3], more than 50000 nM.

As for `O=S1(=O)N=C(OCc2cccc(Br)c2)c2ccccc21`, the Ki in assay [1], in assay [2], in assay [3] and in assay [4] was more than 50000 nM each time.

For the origin of these results see ChEMBL document CHEMBL3124775 (Bioorg Med Chem, 2014).
